Holding throughout (assay type): in vivo
Assay [1] concerns db/db mice. Description: Blood glucose in mouse type II diabetes model, db/db mice (Example 2). To be noted: single agent 0.04 g/kg per day by gavage, two weeks, 1 h after last administration, mean ± SD. The text has this:
Effects of limonoid compound, acarbose or combination thereof on blood glucose and leptin in mouse type II diabetes model
In the present example, db/db mice (line name BKS.Cg-Dock7^m+/+Lepr^db/Nju) were used to perform hypoglycemic efficacy evaluation test of animals (blood glucose level and leptin). The limonoid compound was selected from obacunone, isoobacunoic acid and obacunone glycoside, and acarbose single administration group, obacunone single administration group, isoobacunoic acid single administration group, obacunone glycoside single administered group, and respective combination thereof with acarbose administration groups were set.
(§1) Conditions for experimental feeding: as type II diabetes model mice, 6-week-old SPF-grade db/db mice were purchased from the Nanjing Model Biology Institute, and subjected to experimental feeding after 7 days of preliminary feeding. It should be noted that the conditions for raising the mice were as follows: the temperature was 23±1° C., the humidity was 55±10%, the lights were turned on between 7 am and 7 pm (the lights were turned off at other time), and the mice were allowed to freely take in water and feed. […]

Assay [2] has as its system db/db mice. Description: Blood glucose in mouse type II diabetes model, db/db mice (Example 4). Conditions: single agent 0.2 g/kg per day by gavage, two weeks, 1 h after last administration, mean ± SD. An excerpt: (§2) Effects of limonoid compound, acarbose or combination thereof on blood glucose and insulin in mouse type II diabetes model
(§3) In the present embodiment, the limonoid compound was selected from nomilin, deacetylnomilin, nomilin acid, deacetylnomilin acid glycoside, and acarbose single administration group, nomilin single administration group, deacetylnomilin single administration group, nomilin acid single administered group, deacetylnomilin acid glycoside single administration group, and respective combination thereof with acarbose administration groups were set.
Conditions for experimental feeding: as type II diabetes model mice, 6-week-old SPF-grade db/db mice were purchased from the Nanjing Model Biology Institute, and subjected to experimental feeding after 7 days of preliminary feeding. […]
Gavage doses: nomilin at a dose of 0.2 g/kg was gavaged per day for the nomilin group, deacetylnomilin at a dose of 0.2 g/kg was gavaged per day for the deacetylnomilin group, nomilin acid at a dose of 0.2 g/kg was gavaged per day for the nomilin acid group, deacetylnomilin acid glycoside at a dose of 0.2 g/kg was gavaged per day for the deacetylnomilin acid glycoside group, acarbose at a dose of 0.2 g/kg was gavaged per day for the acarbose group, nomilin at a dose of 0.1 g/kg and acarbose at a dose of 0.1 g/kg were simultaneously gavaged per day for the nomilin combination group, nomilin acid at a dose of 0.1 g/kg and acarbose at a dose of 0.1 g/kg were simultaneously gavaged per day for the nomilin acid combination group, deacetylnomilin at a dose of 0.1 g/kg and acarbose at a dose of 0.1 g/kg were simultaneously gavaged per day for the deacetylnomilin combination group, deacetylnomilin acid glycoside at a dose of 0.1 g/kg and acarbose at a dose of 0.1 g/kg were simultaneously gavaged per day for the deacetylnomilin acid glycoside combination group, the gavage volume was 10 mL/kg, and the normal group and the model group were administrated with 10 mL/kg of distilled water. […] The data were expressed as mean and standard deviation. […]

In assay [3] the test system is db/db mice. Description: Serum insulin by Elisa in db/db mice (Example 4). Conditions: single agent 0.2 g/kg per day by gavage, two weeks, mean ± SD.
Source text: as §2, §3
as §1, with “feed. The experimental feed was mouse growth-stable feed (GB M2118), and the daily feeding and management of the animals were under the responsibility of the animal security department, which provided the animals with sufficient diet and fresh drinking water daily.” for “feed.”

This is an account of results in patent US20220296566A1, “COMBINATION PRODUCT CONTAINING LIMONOID COMPOUND AND ALPHA-GLUCOSIDASE INHIBITOR” (ZHEJIANG YANGSHENGTANG INSTITUTE OF NATURAL MEDICATION CO., …, priority 2019, published 2022).

For the compound `C[C@H]1O[C@H](O[C@H]2[C@H](O)[C@@H](O)[C@@H](O[C@H]3[C@H](O)[C@@H](O)C(O)O[C@@H]3CO)O[C@@H]2CO)[C@H](O)[C@@H](O)[C@@H]1N[C@H]1C=C(CO)[C@@H](O)[C@H](O)[C@H]1O` (stereo partly drawn) [Acarbose, acarbose], the Blood glucose value is 16.9 ± 4.0 mmol/L in the assay with db/db mice [1] and 13.6 ± 2.9 mmol/L in the assay with db/db mice [2]. Moreover, the Insulin with db/db mice [3] turned out to be 8.45 ± 2.21 pg/mL.
